Measurements: patent US20240238445A1, “INHIBITORS AND USES THEREOF” (NEURACLE SCIENCE CO., LTD., priority 2021, published 2024)
Square brackets hold non-standard residues; d marks the D form. Ends that are not written are not given here.

System: hippocampal neurons co-treated with toxic Aβ oligomer
Assay: Amyloid beta-induced synapse loss in mouse primary hippocampal neurons
Format: cell-based
Details: 6.6 nM
Procedure: Alzheimer's disease (AD) is tightly associated with the dysmetabolism of amyloid-β (Aβ). To begin assessing whether the polypeptides provided herein (i.e., comprising the FAM19A5 binding domain of LRRC4 protein family members) could have any therapeutic effects on AD, the effect of various FB-21 peptide fragments described herein on the deformation of synapse induced by toxic Aβ oligomer and following structural recovery was assessed. Specifically, the following FB-21 peptide fragments were tested: FB-21, FB-JM-31 and FB-BBB-39 (see Example 10).
Aβ42 (#20276) peptide was purchased from AnaSpec (Fremont, USA). […]
Hippocampal neurons were treated with 6.6 nM FB-21, 6.6 nM of FB-13-JM and 6.6 nM of FB-13-BBBX2 at 14, 17 and 20 DIV to determine the level of synaptogenesis at 21 DIV by immunostaining SYP, a presynapse marker protein and PSD95, a postsynapse marker protein. To quantify fluorescence intensity for SYN and PSD95 and number of colocalized voxels between SYN and PSD95 signals, z-stack confocal images of 3 μm in depth were converted to 3D images using IMARIS software (IMARIS9.0, Bitplane AG, Zurich, Switzerland). The “Surface tool” of the IMARIS software was used to exclude all the signals detected in neuronal cell bodies, and number of colocalized voxels between SYN and PSD95 signals in neurites were calculated using the “Coloc tool”. […]

**Q.** How did the “colocalized voxels for PSD95 and synaptophysin” value turn out when “nYTYFTTVTVETLETQPGEEALDEVMKTTKa ([dN]YTYFTTVTVETLETQPGEEALDEVMKTTK[dA]; also: terminal modifications n and a on first and last residues) [FB peptide with JM sequence]” was run?
**A.** Its value is “significant increase in colocalized voxels”.
